Laboratory results taken from patent US8628961B2, “Small molecule antagonists of phosphatidylinositol-3,4,5-triphosphate (PIP3) and uses thereof” (Tufts University, priority 2010, dated 2014).

Legend:
Akt PH domain = Akt PH domain (Homo sapiens (Human), UniProt P31749); assay: PH domain translocation assay (GFP fusion, plasma membrane); assay type: cell-based; conditions: PDGF stimulation
Method: Cells were transfected with the corresponding GFP-fusion vectors, serum starved overnight, and incubated with 100 μM PITs or PIT-1 is for 2 hr, followed by stimulation with 100 ng/ml PDGF or 250 ng/ml PMA for 5 min. The translocation was analyzed using fluorescent microscope and was quantitated by counting the number of cells with translocated PH domains in five random fields.
To begin characterizing cellular activity of PITs, a PH domain translocation assay was performed, measuring PIP3-induced association of GFP-fused PH domains with the plasma membrane. […] Varnai P et al. (1999) J Biol Chem 274:10983-9. Several PH-domain-containing proteins, which are known to bind PIP3 specifically and efficiently, were examined. […] Oikawa T et al. (2004) Nat Cell Biol 6:420-6.

[1] = test system: SV40-transformed mouse adult lung fibroblasts; assay: Viability of Akt1-expressing versus Akt1-3 triple knockout fibroblasts; assay type: cell-based
Text: Shaughnessy J D (2008) Nature 454:172-3; Weinstein I G (2002) Science 297:63-4. Therefore, the possibility that PIT-1 may cause preferential cell death in the cells containing elevated PIP3 levels was examined. […] Li D M et al. (1998) Proc Natl Acad Sci USA 95:15406-11. […] Neshat M S et al. (2001) Proc Natl Acad Sci USA 98:10314-9.

[2] = Cell death in combination with inhibitors of mitochondrial respiration and ATP synthase; assay type: cell-based
Text: Elstrom R L et al. (2004) Cancer Res 64:3892-9.

human cancer cells = assay: Cancer cell migration, transwell migration and wound closure models; assay type: cell-based; conditions: model not specified
Method: Two models of cell migration were used, a transwell migration model and a wound closure model. Migration of cancer and endothelial cells was evaluated using 24-transwell Boyden chamber (Costar, Bedford, Mass.) with a polystyrene membrane (6.5 mm diameter, 10 μm thickness, and 8 μm pore size). Cells were suspended in serum-free media and seeded in the upper compartment of each well (2×10^4 cells/well) in the presence or absence of different compounds at the indicated concentrations. The lower compartment contained 600 μl of serum-free culture media supplemented with growth factors. After an 8-hr incubation at 37° C., cells were fixed and stained with 0.1% crystal violet. Non-migrating cells on the upper surface of the filter were removed, and the stained cells that migrated to the lower side were photographed using a phase-contrast microscope (Nikon, Japan) in five random fields. The cells were lysed with 10% acetic acid, and colorimetric determination was made at 595 nm using Wallac Victor 3 plate reader.
Cancer or endothelial cells were seeded into fibronectin-coated 96-well plates (2×10^4 cells/well). After reaching confluence, cell monolayers were scratched with a pipette tip to obtain a “wound”. The media and dislodged cells were aspirated and replaced by fresh serum-free media in the presence of growth factors, with or without compounds at different concentrations. After an 8-hr incubation at 37° C., cells were photographed using a phase-contrast microscope in five random fields. The width of wounded cell monolayers in images was measured and the inhibition rates of migration were calculated as inhibition rate=[1−(compound-treated group/control group)]×100%, and IC50 value was determined using Origin6 software (MicroCal, LLC, Northampton, Mass.).

U87MG cells = assay: Combination with Akt kinase inhibitors in U87MG cells (western blot, ATP assay); assay type: cell-based, human
Method: U87MG cells were treated with 100 μM PIT-1, or 10 μM Akt inhibitor VIII (Calbiochem) or Akt inhibitor (Calbiochem), or 100 μM PIT-1 together with 10 μM Akt inhibitor VIII or Akt inhibitor, for 12 hr and then phosphorylation events were evaluated by western blot.

Chain of Akt PH domain (P31749 5-108): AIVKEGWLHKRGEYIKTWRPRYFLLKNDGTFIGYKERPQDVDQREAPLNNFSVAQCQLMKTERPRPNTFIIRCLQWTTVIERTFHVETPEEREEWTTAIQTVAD

With O=c1[nH]c2ccccc2n1C1CCN(Cc2ccc(-c3nc4cc5[nH]cnc5cc4nc3-c3ccccc3)cc2)CC1 [Akt inhibitor VIII] the “plasma membrane translocation of Akt PH domain” value (Akt PH domain) was “Neither Akt inhibitor X nor allosteric inhibitor VIII blocked membrane translocation”, the “loss of viability in Akt1-expressing versus Akt1-3 triple knockout fibroblasts” value [1] was “comparable” and the “cell death with oligomycin, antimycin A, rotenone” value [2] was “synergized”. For the same compound, the cancer cell migration (human cancer cells) was “lack thereof” and the “combination of Akt inhibitors VIII and X” value (U87MG cells) was “no additive effect”.
